Measurements published in patent publication US12097202B2 (Kadmon Corporation, LLC, priority 2022, dated 2024).

How the values were obtained:
UGT1A9 = target: T1, UGT1A9 (Homo sapiens, UniProt O60656); assay: In vitro enzyme inhibition, UGT1A9; assay type: in vitro ADME
T1 sequence (O60656 26-530): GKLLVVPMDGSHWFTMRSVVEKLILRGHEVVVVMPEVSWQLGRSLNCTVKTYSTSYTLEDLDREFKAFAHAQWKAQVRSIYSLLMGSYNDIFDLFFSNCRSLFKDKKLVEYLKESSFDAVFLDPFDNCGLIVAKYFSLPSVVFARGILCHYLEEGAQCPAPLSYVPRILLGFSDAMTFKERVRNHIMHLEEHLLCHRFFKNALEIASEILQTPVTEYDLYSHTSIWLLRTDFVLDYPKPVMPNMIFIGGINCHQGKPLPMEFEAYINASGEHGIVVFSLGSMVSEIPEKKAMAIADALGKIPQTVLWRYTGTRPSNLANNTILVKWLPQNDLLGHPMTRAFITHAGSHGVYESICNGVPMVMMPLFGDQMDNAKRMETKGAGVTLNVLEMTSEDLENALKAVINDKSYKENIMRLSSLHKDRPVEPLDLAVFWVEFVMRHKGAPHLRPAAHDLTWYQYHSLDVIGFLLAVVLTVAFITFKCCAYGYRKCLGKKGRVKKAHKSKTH

P-gp = P-gp (Homo sapiens, UniProt P08183); assay: In vitro transporter study, P-gp; assay type: in vitro ADME
Sequence of P-gp (P08183 whole entry): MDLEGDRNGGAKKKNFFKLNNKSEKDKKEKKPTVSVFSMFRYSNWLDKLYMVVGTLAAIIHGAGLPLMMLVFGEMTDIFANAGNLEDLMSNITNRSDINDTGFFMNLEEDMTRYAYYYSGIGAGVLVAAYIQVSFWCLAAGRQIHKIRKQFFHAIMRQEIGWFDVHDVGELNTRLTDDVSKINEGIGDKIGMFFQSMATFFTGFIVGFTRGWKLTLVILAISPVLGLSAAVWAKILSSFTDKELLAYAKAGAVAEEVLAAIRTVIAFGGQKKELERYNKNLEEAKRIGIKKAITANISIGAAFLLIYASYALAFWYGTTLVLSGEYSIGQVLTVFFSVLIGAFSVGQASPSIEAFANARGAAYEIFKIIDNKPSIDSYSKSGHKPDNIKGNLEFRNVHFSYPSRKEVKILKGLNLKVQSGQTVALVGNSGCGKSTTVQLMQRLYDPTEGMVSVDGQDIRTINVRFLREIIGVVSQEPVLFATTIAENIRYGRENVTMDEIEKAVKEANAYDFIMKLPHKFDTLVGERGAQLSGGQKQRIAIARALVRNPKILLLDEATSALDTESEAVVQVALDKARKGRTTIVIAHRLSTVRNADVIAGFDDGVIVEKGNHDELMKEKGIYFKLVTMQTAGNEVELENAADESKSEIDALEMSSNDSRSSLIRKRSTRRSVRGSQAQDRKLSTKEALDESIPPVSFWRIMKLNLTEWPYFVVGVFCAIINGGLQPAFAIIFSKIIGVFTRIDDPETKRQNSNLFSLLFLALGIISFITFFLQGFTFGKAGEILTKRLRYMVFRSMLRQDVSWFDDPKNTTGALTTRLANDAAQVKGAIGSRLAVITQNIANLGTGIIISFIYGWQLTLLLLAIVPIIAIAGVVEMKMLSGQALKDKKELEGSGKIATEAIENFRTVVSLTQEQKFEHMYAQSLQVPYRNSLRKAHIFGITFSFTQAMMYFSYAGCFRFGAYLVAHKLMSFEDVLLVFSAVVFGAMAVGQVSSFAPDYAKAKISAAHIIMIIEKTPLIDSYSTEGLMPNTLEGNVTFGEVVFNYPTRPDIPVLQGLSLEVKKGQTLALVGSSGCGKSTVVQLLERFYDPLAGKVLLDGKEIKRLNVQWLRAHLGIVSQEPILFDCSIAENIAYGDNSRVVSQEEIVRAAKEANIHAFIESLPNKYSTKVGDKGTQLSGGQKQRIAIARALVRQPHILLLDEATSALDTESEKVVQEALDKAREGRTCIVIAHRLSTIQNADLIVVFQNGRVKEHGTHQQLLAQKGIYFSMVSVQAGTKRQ

CYP2D6 = CYP2D6 (Homo sapiens, UniProt P10635); assay: In vitro metabolism by CYP2D6; assay type: in vitro ADME
Sequence of CYP2D6 (P10635 whole entry): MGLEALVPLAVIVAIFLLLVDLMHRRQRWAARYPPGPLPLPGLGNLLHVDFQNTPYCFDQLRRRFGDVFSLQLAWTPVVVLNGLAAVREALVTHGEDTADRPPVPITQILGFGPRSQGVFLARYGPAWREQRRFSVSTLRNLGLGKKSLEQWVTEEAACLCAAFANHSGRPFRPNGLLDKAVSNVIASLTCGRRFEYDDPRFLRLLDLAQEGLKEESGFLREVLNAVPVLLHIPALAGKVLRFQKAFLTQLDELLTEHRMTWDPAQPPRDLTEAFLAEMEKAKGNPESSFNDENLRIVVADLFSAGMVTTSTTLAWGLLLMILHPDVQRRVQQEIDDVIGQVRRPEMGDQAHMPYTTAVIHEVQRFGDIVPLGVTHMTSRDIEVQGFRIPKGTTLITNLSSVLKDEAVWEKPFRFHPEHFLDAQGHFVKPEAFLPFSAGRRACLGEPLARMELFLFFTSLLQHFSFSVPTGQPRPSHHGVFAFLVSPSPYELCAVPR

human serum albumin = human serum albumin (Homo sapiens, UniProt P02768); assay: In vitro protein binding, human serum albumin; assay type: in vitro ADME
Sequence of human serum albumin (P02768 25-609): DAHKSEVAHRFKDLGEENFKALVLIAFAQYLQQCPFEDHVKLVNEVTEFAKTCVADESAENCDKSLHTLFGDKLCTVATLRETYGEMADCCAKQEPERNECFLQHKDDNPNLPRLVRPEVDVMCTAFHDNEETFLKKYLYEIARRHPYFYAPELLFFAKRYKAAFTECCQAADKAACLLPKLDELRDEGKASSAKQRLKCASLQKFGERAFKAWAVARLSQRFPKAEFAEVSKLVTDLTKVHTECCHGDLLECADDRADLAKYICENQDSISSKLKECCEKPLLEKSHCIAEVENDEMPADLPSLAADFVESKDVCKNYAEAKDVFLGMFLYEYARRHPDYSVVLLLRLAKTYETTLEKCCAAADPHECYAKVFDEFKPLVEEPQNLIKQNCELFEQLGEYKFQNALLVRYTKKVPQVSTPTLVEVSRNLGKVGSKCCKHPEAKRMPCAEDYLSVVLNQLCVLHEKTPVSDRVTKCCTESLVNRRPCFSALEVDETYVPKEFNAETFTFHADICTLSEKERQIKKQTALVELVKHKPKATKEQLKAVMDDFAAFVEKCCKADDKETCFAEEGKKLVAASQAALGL

rats = assay: General toxicology studies in rats; assay type: in vivo, rat

Compound: CC(C)NC(=O)COc1cccc(-c2nc(Nc3ccc4[nH]ncc4c3)c3ccccc3n2)c1 [belumosudil, 2-{3-[4-(1H-indazol-5-ylamino)-2-quinazolinyl]phenoxy}-N-(propan-2-yl) acetamide]
- inhibition of UGT1A9 (UGT1A9): inhibitor
- P-gp substrate status (P-gp): substrate of P-gp
- inhibition of P-gp (P-gp; at clinically relevant concentrations): inhibits
- metabolism by CYP2D6 (CYP2D6): to a lesser extent
- binding to human serum albumin (human serum albumin): 99.9%
- dose with decreased follicular development in ovaries (rats): 275 mg/kg/day
